According to the supplement of paper PMC10307832:

What was measured:
Test in all cases: relative viability (nuclei count vs DMSO), 5 days (fraction); higher = more cells survive
NCI-H2023 = test system: NCI-H2023
In short: (§1)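 Nuclei were stained with Hoechst during a one-step fixation (final 0.05% Triton X-100, 1% formaldehyde, 1 ug/ml Hoechst) carried out 5 days after dosing, then counted on 4× images. The cells, lung cancer lines in 1536-well plates, had been dosed by pin tool the day after seeding with one drug alone or a fixed anchor-drug dose plus five library-drug doses (not always all listed) in √10 steps. Relative viability is the nuclei count in treated wells divided by that in vehicle wells, and each value is the median of duplicate plates.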

NCI-H1993 = test system: NCI-H1993
In short: as §1

NCI-H2009 = test system: NCI-H2009
In short: as §1

NCI-H2126 = test system: NCI-H2126
In short: as §1

NCI-H2347 = test system: NCI-H2347
In short: as §1

EPLC-272H = test system: EPLC-272H
In short: as §1

NCI-H661 = test system: NCI-H661
In short: as §1

NCI-H647 = test system: NCI-H647
In short: as §1

EMC-BAC-2 = test system: EMC-BAC-2
In short: as §1

SK-LU-1 = test system: SK-LU-1
In short: as §1

NCI-H1734 = test system: NCI-H1734
In short: as §1

NCI-H1915 = test system: NCI-H1915
In short: as §1

H3255 = test system: H3255
In short: as §1

NCI-H2085 = test system: NCI-H2085
In short: as §1

NCI-H322M = test system: NCI-H322M
In short: as §1

NCI-H727 = test system: NCI-H727
In short: as §1

SW 1573 = test system: SW 1573
In short: as §1

LXF-289 = test system: LXF-289
In short: as §1

HOP-62 = test system: HOP-62
In short: as §1

PC-14 = test system: PC-14
In short: as §1

Question: Which relative viability (NCI-H2023; first compound 0.0002 µM) does the source give for `CC(=O)O[C@@]12CO[C@@H]1C[C@H](O)[C@@]1(C)C(=O)[C@H](O)C3=C(C)[C@@H](OC(=O)[C@H](O)[C@@H](NC(=O)OC(C)(C)C)c4ccccc4)C[C@@](O)([C@@H](OC(=O)c4ccccc4)[C@H]21)C3(C)C` [Docetaxel] + CC(=O)c1c(C)c2cnc(Nc3ccc(N4CCNCC4)cn3)nc2n(C2CCCC2)c1=O [Palbociclib] (partner 0.5 µM) here?
Answer: 0.357

Question: What about the relative viability (NCI-H2023; first compound 0.000632 µM) of the same compound?
Answer: 0.339

Question: And the relative viability (NCI-H2023; first compound 0.002 µM)?
Answer: 0.101

Question: What about the relative viability (NCI-H2023; first compound 0.006325 µM) of the same compound?
Answer: 0.0906

Question: What about the relative viability (NCI-H2023; first compound 0.02 µM) of the same compound?
Answer: 0.0705

Question: What about the relative viability (NCI-H1993; first compound 0.0002 µM) of the same compound?
Answer: 0.799

Question: And the relative viability (NCI-H1993; first compound 0.000632 µM)?
Answer: 0.708

Question: What about the relative viability (NCI-H1993; first compound 0.002 µM) of the same compound?
Answer: 0.686

Question: What about the relative viability (NCI-H1993; first compound 0.006325 µM) of the same compound?
Answer: 0.538

Question: And the relative viability (NCI-H1993; first compound 0.02 µM)?
Answer: 0.307

Question: What about the relative viability (NCI-H2009; first compound 0.0002 µM) of the same compound?
Answer: 0.135

Question: And the relative viability (NCI-H2009; first compound 0.000632 µM)?
Answer: 0.234

Question: What about the relative viability (NCI-H2009; first compound 0.002 µM) of the same compound?
Answer: 0.192

Question: And the relative viability (NCI-H2009; first compound 0.006325 µM)?
Answer: 0.202

Question: And the relative viability (NCI-H2009; first compound 0.02 µM)?
Answer: 0.127

Question: And the relative viability (NCI-H2126; first compound 0.0002 µM)?
Answer: 0.378

Question: What about the relative viability (NCI-H2126; first compound 0.000632 µM) of the same compound?
Answer: 0.356

Question: What about the relative viability (NCI-H2126; first compound 0.002 µM) of the same compound?
Answer: 0.332

Question: And the relative viability (NCI-H2126; first compound 0.006325 µM)?
Answer: 0.261

Question: What about the relative viability (NCI-H2347; first compound 0.0002 µM) of the same compound?
Answer: 0.375

Question: What about the relative viability (NCI-H2347; first compound 0.000632 µM) of the same compound?
Answer: 0.429

Question: What about the relative viability (NCI-H2347; first compound 0.002 µM) of the same compound?
Answer: 0.408

Question: And the relative viability (NCI-H2347; first compound 0.006325 µM)?
Answer: 0.373

Question: What about the relative viability (NCI-H2347; first compound 0.02 µM) of the same compound?
Answer: 0.343

Question: What about the relative viability (EPLC-272H; first compound 0.0002 µM) of the same compound?
Answer: 0.374

Question: And the relative viability (EPLC-272H; first compound 0.000632 µM)?
Answer: 0.341

Question: And the relative viability (EPLC-272H; first compound 0.002 µM)?
Answer: 0.236

Question: What about the relative viability (EPLC-272H; first compound 0.006325 µM) of the same compound?
Answer: 0.204

Question: What about the relative viability (EPLC-272H; first compound 0.02 µM) of the same compound?
Answer: 0.148

Question: What about the relative viability (NCI-H661; first compound 0.0002 µM) of the same compound?
Answer: 0.42

Question: What about the relative viability (NCI-H661; first compound 0.000632 µM) of the same compound?
Answer: 0.448

Question: And the relative viability (NCI-H661; first compound 0.002 µM)?
Answer: 0.472

Question: And the relative viability (NCI-H661; first compound 0.006325 µM)?
Answer: 0.377

Question: What about the relative viability (NCI-H661; first compound 0.02 µM) of the same compound?
Answer: 0.359

Question: And the relative viability (NCI-H647; first compound 0.0002 µM)?
Answer: 0.3

Question: And the relative viability (NCI-H647; first compound 0.000632 µM)?
Answer: 0.387

Question: What about the relative viability (NCI-H647; first compound 0.002 µM) of the same compound?
Answer: 0.11

Question: And the relative viability (NCI-H647; first compound 0.006325 µM)?
Answer: 0.0808

Question: What about the relative viability (NCI-H647; first compound 0.02 µM) of the same compound?
Answer: 0.062

Question: What about the relative viability (EMC-BAC-2; first compound 0.0002 µM) of the same compound?
Answer: 0.511

Question: What about the relative viability (EMC-BAC-2; first compound 0.000632 µM) of the same compound?
Answer: 0.536

Question: And the relative viability (EMC-BAC-2; first compound 0.002 µM)?
Answer: 0.441

Question: What about the relative viability (EMC-BAC-2; first compound 0.006325 µM) of the same compound?
Answer: 0.363

Question: And the relative viability (EMC-BAC-2; first compound 0.02 µM)?
Answer: 0.31

Question: And the relative viability (SK-LU-1; first compound 0.0002 µM)?
Answer: 0.358

Question: And the relative viability (SK-LU-1; first compound 0.000632 µM)?
Answer: 0.315

Question: And the relative viability (SK-LU-1; first compound 0.002 µM)?
Answer: 0.409

Question: And the relative viability (SK-LU-1; first compound 0.006325 µM)?
Answer: 0.265

Question: What about the relative viability (SK-LU-1; first compound 0.02 µM) of the same compound?
Answer: 0.19

Question: And the relative viability (NCI-H1734; first compound 0.0002 µM)?
Answer: 0.321

Question: What about the relative viability (NCI-H1734; first compound 0.000632 µM) of the same compound?
Answer: 0.336

Question: What about the relative viability (NCI-H1734; first compound 0.002 µM) of the same compound?
Answer: 0.281

Question: And the relative viability (NCI-H1734; first compound 0.006325 µM)?
Answer: 0.314

Question: And the relative viability (NCI-H1734; first compound 0.02 µM)?
Answer: 0.23

Question: What about the relative viability (NCI-H1915; first compound 0.0002 µM) of the same compound?
Answer: 0.506

Question: And the relative viability (NCI-H1915; first compound 0.000632 µM)?
Answer: 0.464

Question: What about the relative viability (NCI-H1915; first compound 0.002 µM) of the same compound?
Answer: 0.219

Question: And the relative viability (NCI-H1915; first compound 0.006325 µM)?
Answer: 0.149

Question: And the relative viability (NCI-H1915; first compound 0.02 µM)?
Answer: 0.102

Question: What about the relative viability (H3255; first compound 0.0002 µM) of the same compound?
Answer: 0.323

Question: What about the relative viability (H3255; first compound 0.000632 µM) of the same compound?
Answer: 0.304

Question: What about the relative viability (H3255; first compound 0.002 µM) of the same compound?
Answer: 0.296

Question: And the relative viability (H3255; first compound 0.006325 µM)?
Answer: 0.308

Question: And the relative viability (H3255; first compound 0.02 µM)?
Answer: 0.282

Question: And the relative viability (NCI-H2085; first compound 0.0002 µM)?
Answer: 0.463

Question: And the relative viability (NCI-H2085; first compound 0.000632 µM)?
Answer: 0.551

Question: What about the relative viability (NCI-H2085; first compound 0.002 µM) of the same compound?
Answer: 0.539

Question: And the relative viability (NCI-H2085; first compound 0.006325 µM)?
Answer: 0.48

Question: What about the relative viability (NCI-H2085; first compound 0.02 µM) of the same compound?
Answer: 0.42

Question: And the relative viability (NCI-H322M; first compound 0.0002 µM)?
Answer: 0.469

Question: And the relative viability (NCI-H322M; first compound 0.000632 µM)?
Answer: 0.448

Question: And the relative viability (NCI-H322M; first compound 0.002 µM)?
Answer: 0.471

Question: What about the relative viability (NCI-H322M; first compound 0.006325 µM) of the same compound?
Answer: 0.468

Question: And the relative viability (NCI-H322M; first compound 0.02 µM)?
Answer: 0.438

Question: And the relative viability (NCI-H727; first compound 0.0002 µM)?
Answer: 0.618

Question: And the relative viability (NCI-H727; first compound 0.000632 µM)?
Answer: 0.64

Question: What about the relative viability (NCI-H727; first compound 0.002 µM) of the same compound?
Answer: 0.629

Question: What about the relative viability (NCI-H727; first compound 0.006325 µM) of the same compound?
Answer: 0.538

Question: What about the relative viability (NCI-H727; first compound 0.02 µM) of the same compound?
Answer: 0.446

Question: And the relative viability (SW 1573; first compound 0.0002 µM)?
Answer: 0.316

Question: And the relative viability (SW 1573; first compound 0.000632 µM)?
Answer: 0.23

Question: And the relative viability (SW 1573; first compound 0.002 µM)?
Answer: 0.155

Question: What about the relative viability (SW 1573; first compound 0.006325 µM) of the same compound?
Answer: 0.196

Question: What about the relative viability (SW 1573; first compound 0.02 µM) of the same compound?
Answer: 0.0993

Question: And the relative viability (LXF-289; first compound 0.0002 µM)?
Answer: 0.578

Question: What about the relative viability (LXF-289; first compound 0.000632 µM) of the same compound?
Answer: 0.569

Question: And the relative viability (LXF-289; first compound 0.002 µM)?
Answer: 0.337

Question: And the relative viability (LXF-289; first compound 0.006325 µM)?
Answer: 0.222

Question: And the relative viability (LXF-289; first compound 0.02 µM)?
Answer: 0.131

Question: And the relative viability (HOP-62; first compound 0.0002 µM)?
Answer: 0.461

Question: And the relative viability (HOP-62; first compound 0.000632 µM)?
Answer: 0.353

Question: And the relative viability (HOP-62; first compound 0.002 µM)?
Answer: 0.284

Question: And the relative viability (HOP-62; first compound 0.02 µM)?
Answer: 0.156

Question: And the relative viability (PC-14; first compound 0.0002 µM)?
Answer: 0.466

Question: What about the relative viability (PC-14; first compound 0.000632 µM) of the same compound?
Answer: 0.501

Question: What about the relative viability (PC-14; first compound 0.002 µM) of the same compound?
Answer: 0.0828

Question: What about the relative viability (PC-14; first compound 0.006325 µM) of the same compound?
Answer: 0.0351

Question: What about the relative viability (PC-14; first compound 0.02 µM) of the same compound?
Answer: 0.0299
